According to patent publication US7297817B2, “Thio-substituted arylmethanesulfinyl derivatives” (Cephalon France, priority 2004, dated 2007):

Assays:
[1] = system: Wistar rats; assay: Evaluation of Wake Promoting Activity in Rats (EEG/EMG sleep/wake scoring); type: in vivo, rat; conditions: i.p. route, 100 mg/kg; for Mean AUC0–3h, test compound: first 3 hrs following dosing, n = 8 rats; for wakefulness compared to vehicle-treated animals: p<0.05 vs control groups
Description: The methodology utilized for evaluating wake promoting activity of test compounds is based on that described by Edgar and Seidel, Journal of Pharmacology and Experimental Therapeutics, 283:757-769, 1997, and incorporated herein in its entirety by reference.
Animal Surgery. Adult, male Wistar rats (275-320 g from Charles River Laboratories, Wilmington, Mass.) were anesthetized (Nembutal, 45 mg/kg, ip.) and surgically prepared with implants for recording of chronic EEG (encephalographic) and EMG (electromyographic) recording. The EEG implants were made from commercially available components (Plastics One, Roanoke, Va.). EEG signals were recorded from stainless steel screw electrodes: 2 frontal (+3.0 mm AP from bregma, ±2.0 mm ML), and 2 occipital (−4.0 mm AP from bregma, ±2.0 mm ML). Two Teflon-coated stainless steel wires were positioned under the nuchal trapezoid muscles for EMG recording. All electrode leads were inserted into a connector pedestal and the pedestal affixed to the skull by application dental acrylic. Antibiotic was administered post surgically and antibiotic cream was applied to the wound edges to prevent infection. At least one week elapsed between surgery and recording.
Recording environment. Postsurgically, rats were housed in pairs in an isolated room. Food and water were available ad libitum, ambient temperature was 21° C., and humidity was 55%. At least 24 hrs prior to recording, they were placed in Nalgene containers (31×31×31 cm) with a wire-grid top, and entry to the room was prohibited during the day of recording except for dosing. The containers were placed on a rack with two shelves, 4 containers per shelf. Fluorescent overhead room lights were set to a 24 hr. light/dark cycle (on at 7 AM, off at 7 PM). Light levels inside the containers were 38 and 25 lux for the top and bottom shelves respectively. Background white-noise (68 db inside the containers) was present in the room to mask ambient sounds.
Data acquisition. EEG and EMG signals were led via cables to a commutator (Plastics One) and then to pre-amplifiers (model 1700, A-M Systems, Carlsborg, Wash.). EEG and EMG signals were amplified (10K and 1K respectively) and bandpass filtered between 0.3 and 500 Hz for EEG and between 10 and 500 Hz for EMG. […] On the day of dosing, data was recorded for 6 to 10 hours beginning at 11 AM.
Drug administration and study design. Compounds were evaluated on groups of from 4 to 8 rats carried out over one or two separate test sessions. […]
Sleep/wake scoring. Sleep and wake activity were determined manually using ICELUS software. […]

Row | melting point [°C] | SMILES | Mean AUC0–3h, test compound [1] | wakefulness compared to vehicle-treated animals [1]
1 | 153 to 154 | NC(=O)C[S+]([O-])Cc1ccccc1COc1ccccc1 (centres unmarked) | – | –
2 | – | CC(=O)N1CCN(C(=O)C[S+]([O-])Cc2ccc(Oc3ccc(Cl)c(Cl)c3)cc2)CC1 (centres unmarked) [Example 22, 1-(4-Acetyl-piperazin-1-yl)-2-[4-(3,4-dichloro-phenoxy)-phenylmethanesulfinyl]-ethanone] | 162.7 % of waiking time × hr | significantly greated wakefulness
3 | – | NC(=O)C[S+]([O-])Cc1ccccc1NC(=O)c1ccc(Cl)cc1 (centres unmarked) [Example 113, N-(2-carbamoylmethanesulfinylmethyl-phenyl)-4-chloro-benzamide] | 99.0 % of waiking time × hr | significantly greated wakefulness
